One experiment has as its target T1, human TLR7 (Homo sapiens, UniProt Q9NYK1).
T1 construct: host or cells: HEK (HEK293) cells with NF-kB-responsive SEAP reporter
T1 sequence (Q9NYK1 27-1049): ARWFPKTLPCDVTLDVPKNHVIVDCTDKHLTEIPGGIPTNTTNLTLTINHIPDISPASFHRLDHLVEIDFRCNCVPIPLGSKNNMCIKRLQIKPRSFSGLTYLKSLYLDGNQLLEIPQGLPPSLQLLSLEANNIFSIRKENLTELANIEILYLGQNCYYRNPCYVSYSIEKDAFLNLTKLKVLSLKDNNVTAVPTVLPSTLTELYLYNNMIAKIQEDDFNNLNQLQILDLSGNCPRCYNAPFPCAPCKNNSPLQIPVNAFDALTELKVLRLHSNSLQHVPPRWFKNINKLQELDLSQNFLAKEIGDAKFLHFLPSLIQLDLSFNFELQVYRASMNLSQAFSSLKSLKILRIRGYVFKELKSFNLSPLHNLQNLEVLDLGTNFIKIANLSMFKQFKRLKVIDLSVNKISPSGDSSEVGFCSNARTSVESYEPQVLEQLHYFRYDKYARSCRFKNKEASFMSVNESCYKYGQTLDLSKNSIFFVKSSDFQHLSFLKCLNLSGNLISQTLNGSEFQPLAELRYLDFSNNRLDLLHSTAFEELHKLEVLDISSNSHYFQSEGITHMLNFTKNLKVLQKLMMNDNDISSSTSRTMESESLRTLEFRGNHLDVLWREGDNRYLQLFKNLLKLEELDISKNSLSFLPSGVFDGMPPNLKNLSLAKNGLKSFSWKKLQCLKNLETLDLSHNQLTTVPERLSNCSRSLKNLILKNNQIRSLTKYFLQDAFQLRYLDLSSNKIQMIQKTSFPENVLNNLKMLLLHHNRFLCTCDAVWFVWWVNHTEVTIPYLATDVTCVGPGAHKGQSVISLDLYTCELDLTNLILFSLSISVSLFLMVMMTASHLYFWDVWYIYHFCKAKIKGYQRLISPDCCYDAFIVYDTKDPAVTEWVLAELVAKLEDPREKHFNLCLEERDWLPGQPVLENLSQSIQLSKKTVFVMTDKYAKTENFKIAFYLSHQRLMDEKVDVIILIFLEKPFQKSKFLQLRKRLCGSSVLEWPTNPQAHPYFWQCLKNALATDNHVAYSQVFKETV
Kind of experiment: TLR7/8-NF-κB reporter assay (HEK-TLR7, SEAP). The class given is cell-based. To be noted: HEK-TLR7 cells, 24 hrs; for EC50: read-out: EC50 of TLR7 (mean ± SD). The protocol: (§1) Human embryonic kidney (HEK) cells that were stably transfected with human TLR7 or TLR8 and an NF-κB—responsive secreted embryonic alkaline phosphatase (SEAP) gene (HEK-TLR7/8) were purchased from InvivoGen (San Diego, Calif.). The procedure used to measure TLR7 or TLR8 agonist activity was conducted as described by Hood et al. (Hood J. D, et al., Human Vaccines, 2010, 6, 4, 322-335). Briefly, HEK-TLR7/8 cells were stimulated with 3.3 or 30 μM of compound in a 96-well plate in DMEM containing 10% FBS and 0.01% Normocin (InvivoGen) for 24 hrs. Twenty microliters of the supernatant from each well was incubated with Quanti-blue substrate solution (InvivoGen) at 37° C. for 1 hour and absorbance was read at 650 nm using a Synergy plate reader (Biotek, Winooski, Vt.).

Another experiment deals with T2, human TLR8 (Homo sapiens, UniProt Q9NR97).
T2 construct: host or cells: HEK (HEK293) cells with NF-kB-responsive SEAP reporter
T2 sequence (Q9NR97 27-1041): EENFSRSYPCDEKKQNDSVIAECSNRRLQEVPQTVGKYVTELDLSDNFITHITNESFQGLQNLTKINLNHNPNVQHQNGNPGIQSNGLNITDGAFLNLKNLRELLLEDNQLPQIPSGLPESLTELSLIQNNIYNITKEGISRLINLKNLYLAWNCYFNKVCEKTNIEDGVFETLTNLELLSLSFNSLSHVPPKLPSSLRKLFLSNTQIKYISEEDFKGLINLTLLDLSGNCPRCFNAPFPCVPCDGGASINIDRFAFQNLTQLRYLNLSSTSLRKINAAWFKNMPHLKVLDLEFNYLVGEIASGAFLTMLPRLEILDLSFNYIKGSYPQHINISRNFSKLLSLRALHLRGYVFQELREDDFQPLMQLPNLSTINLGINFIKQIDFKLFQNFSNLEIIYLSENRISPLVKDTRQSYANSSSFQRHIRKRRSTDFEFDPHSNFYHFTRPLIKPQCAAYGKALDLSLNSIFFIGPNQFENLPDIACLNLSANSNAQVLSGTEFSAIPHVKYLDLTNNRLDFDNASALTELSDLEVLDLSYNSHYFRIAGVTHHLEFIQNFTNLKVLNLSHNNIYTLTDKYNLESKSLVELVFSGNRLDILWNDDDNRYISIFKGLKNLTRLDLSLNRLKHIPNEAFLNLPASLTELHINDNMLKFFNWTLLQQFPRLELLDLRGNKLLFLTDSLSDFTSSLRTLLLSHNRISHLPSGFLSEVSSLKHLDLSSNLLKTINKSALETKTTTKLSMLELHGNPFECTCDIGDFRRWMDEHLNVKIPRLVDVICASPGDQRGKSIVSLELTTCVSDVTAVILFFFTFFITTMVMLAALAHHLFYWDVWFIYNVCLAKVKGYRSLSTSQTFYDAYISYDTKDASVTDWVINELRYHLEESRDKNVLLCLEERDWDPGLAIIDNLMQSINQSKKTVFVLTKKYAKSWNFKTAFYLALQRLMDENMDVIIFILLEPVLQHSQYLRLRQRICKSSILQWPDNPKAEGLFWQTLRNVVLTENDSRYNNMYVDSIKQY
Kind of experiment: TLR7/8-NF-κB reporter assay (HEK-TLR8, SEAP). The format is cell-based. To be noted: HEK-TLR8 cells, 24 hrs, read-out: EC50 of TLR8 (mean ± SD). The protocol:
as §1

For `CCCCc1nc2c(N)nc3cc(C(=O)OC(C)C)ccc3c2n1CC(C)O` (centres unmarked) [Compound 530, 4-Amino-2-butyl-1-(2-hydroxypropyl)-7-isopropoxycarbonyl-1H-imidazo[4,5-c]quinoline], the EC50 was found to be 2.5 ± 0.15 µM at human TLR7 and 5.82 ± 0.2 µM on human TLR8.

As for `COC(=O)c1ccc2c(c1)nc(N)c1nc(Cc3ccccc3)n(CC(C)(C)O)c12` [Compound 535, 4-Amino-2-benzyl-1-(2-hydroxyl-2-methylprop-yl)-7-methoxycarbonyl-1H-imidazo[4,5-c]quinoline], the EC50 on human TLR7 turned out to be 4.79 ± 0.46 µM.

For `COC(=O)c1ccc2c(c1)nc(N)c1ncn(Cc3ccccc3)c12` [Compound 422, 4-amino-1-benzyl--7-methoxycarbonyl-1H-imidazo[4,5-c]quinoline], at human TLR7, the “EC50 of TLR7 (mean ± SD)” value is “NO EC50”.

`COCCc1nc2c(N)nc3cc(C(=O)OC)ccc3c2n1CC(C)O` (centres unmarked) [Compound 536, 4-Amino-1-(2-hydroxypropyl)-2-(2-methoxyethyl)-7-carboxylate-1H-imidazo[4,5-c]quinoline]: the EC50 at human TLR7 came out at 20.2 ± 4.11 µM; on human TLR8, 31.7 ± 1.54 µM.

Consider `CCc1nc2c(N)nc3cc(C(=O)OC)ccc3c2n1CC(C)(C)O` [Compound 517, 4-amino-2-ethyl-1-(2-hydroxy-2-methylpropyl)-7-methoxycarbonyl-1H-imidazo[4,5-c]quinoline], for which the EC50 at human TLR7 amounted to 29.1 ± 4.33 µM.

Consider `CCCc1nc2c(N)nc3cc(C(=O)OC)ccc3c2n1CC(C)(C)O` [Compound 518, 4-amino-1-(2-hydroxy-2-methylpropyl)-7-methoxycarbonyl-2-propyl-1H-imidazo[4,5-c]quinoline], for which, on human TLR7, the 50% effective concentration (EC50) was 23.8 ± 4.34 µM.

As for `CCCCc1nc2c(N)nc3cc(C(=O)OC(C)C)ccc3c2n1CC(C)(C)O` [Compound 526], the EC50 on human TLR7 was 3.94 ± 0.25 µM; on human TLR8, 17.2 ± 5.33 µM.

Turning to `CCCCc1nc2c(N)nc3cc(C(=O)OC)ccc3c2n1CCOCc1ccccc1` [Compound 520, 4-Amino-1-(2-(benzyloxy)ethyl)-2-butyl-7-methoxycarbonyl 1H-imidazo[4,5-c]quinoline], the EC50 came out at 2.42 ± 0.19 µM on human TLR7 and 31 ± 10.6 µM at human TLR8.

Regarding `CCCCc1nc2c(N)nc3cc(C(=O)OC)ccc3c2n1CCO` [Compound 529, 4-Amino-2-butyl-1-(2-hydroxyethyl)-7-methoxycarbonyl-1H-imidazo[4,5-c]quinoline], the EC50 at human TLR7 stood at 22.9 ± 5.28 µM; at human TLR8 it was 4.41 ± 0.49 µM.

As to `COC(=O)c1ccc2c(c1)nc(N)c1nc(C)n(CC(C)(C)O)c12` [Compound 516, 4-amino-1-(2-hydroxy-2-methylpropyl)-7-methoxycarbonyl-2-methyl-1H-imidazo[4,5-c]quinoline], the EC50 on human TLR7 was 49.2 ± 17.3 µM.

Take `CCCCc1nc2c(N)nc3cc(C(=O)OC)ccc3c2n1CCOC` [Compound 521, 4-Amino-2-butyl-1-(2-methoxyethyl)-7-methoxycarbonyl-1H-imidazo[4,5-c]quinolone]: the EC50 on human TLR7 amounted to 5.67 ± 0.81 µM.

Turning to `CCCCc1nc2c(N)nc3cc(C(=O)OCC)ccc3c2n1CC(C)O` (centres unmarked) [Compound 531, 4-Amino-2-butyl-1-(2-hydroxypropyl)-7-ethoxycarbonyl-1H-imidazo[4,5-c]quinoline], the EC50 at human TLR7 turned out to be 5.23 ± 0.16 µM; on human TLR8 it was 4.73 ± 0.55 µM.

For `CCCCc1nc2c(N)nc3cc(C(=O)OCC)ccc3c2n1CC(C)(C)O` [Compound 525, 4-Amino-2-butyl-1-(2-hydroxyl-2-methylprop-yl)-7-ethoxycarbonyl-1H-imidazo[4,5-c]quinoline], the EC50 stood at 2.21 ± 0.44 µM at human TLR7 and 19.9 ± 1.04 µM at human TLR8.

Turning to `COC(=O)c1ccc2c(c1)nc(N)c1ncn(CC(C)(C)O)c12` [Compound 421, 4-amino-1-(2-hydroxy-2-methylpropyl)-7-methoxycarbonyl-1H-imidazo[4,5-c]quinoline], the “EC50 of TLR7 (mean ± SD)” value at human TLR7 was “NO EC50”.

As to `COC(=O)c1ccc2nc(N)c3ncn(CC(C)C)c3c2c1` [Compound 504, 4-amino-1-isobutyl-8-methoxycarbonyl-1H-imidazo[4,5-c]quinoline], the EC50 worked out at 21.2 ± 5.22 µM on human TLR7 and 21.2 ± 19.9 µM on human TLR8.

Turning to `CCOC(=O)c1ccc2c(c1)nc(N)c1ncn(CC(C)C)c12` [Compound 511, 4-Amino-7-ethoxycarbonyl-1-(2-methylpropyl)-1H-imidazo[4,5-c]quinoline], the EC50 on human TLR7 came out at 7.92 ± 1.49 µM.

Take `CCCCCc1nc2c(N)nc3cc(C(=O)OC)ccc3c2n1CC(C)(C)O` [Compound 527, 4-Amino-1-(2-hydroxyl-2-methylpropyl)-7-methoxy carbonyl-2-pentyl-1H-imidazo[4,5-c]quinoline]: the figures for the concentration giving a half-maximal response (EC50) on human TLR7 and on human TLR8 were 2.6 ± 0.18 µM and 7.15 ± 0.29 µM, respectively.

For the origin of these results see patent publication US9034336B2, “Immunomodulators and immunomodulator conjugates” (Regents of the University of Minnesota, priority 2011, dated 2015).
